# Values of other authors as cited in patent publication US9326457B2, “Micro layering pest control solution” (DAIRY SOLUTIONS, INC, priority 2013, dated 2016).
# Conditions: natural pyrethrum, degrades very quickly; short duration application
substance,measurement,value
Pyrethrin,half life,about 30 mins
